Like-named read-outs stand apart in the source and are kept apart here.
Columns and labels:
Type in all cases: biochemical
[1] = target: T1, JAK3 (catalytic domain, His-tag) (Homo sapiens, UniProt P52333); assay: JAK kinase assay (HTRF, phosphorylation of TK substrate-biotin), JAK3; conditions: ATP at Km (2 μM), read-out: JAK3 kinase inhibitory activity (EC50 indicator)
T1 construct: All four purified enzymes contain only the catalytic domain; His (N); purchased Carna Biosciences, Inc; host or cells: baculovirus expression system
How it was run: (§1)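 Per reaction, 5 ng JAK1, 0.1 ng JAK2, 0.3 ng JAK3 or 0.8 ng TYK2 (baculovirus-expressed catalytic domains) acted on 1 μM TK substrate-biotin at Km ATP for 20-30 min, RT. Phosphorylation measured by HTRF.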

[2] = target: T2, JAK1 (aa 850-1154, catalytic domain, GST-tag) (Homo sapiens, UniProt P23458); assay: JAK kinase assay (HTRF, phosphorylation of TK substrate-biotin), JAK1; conditions: ATP at Km (7 μM), read-out: JAK1 kinase inhibitory activity (EC50 indicator)
T2 construct: JAK1 (aa 850-1154) and TYK2 (aa 871-1187) are expressed with an N-terminally fused GST-tag; GST (N); purchased Carna Biosciences, Inc; host or cells: baculovirus expression system
How it was run: as §1

[3] = target: T3, JAK2 (catalytic domain, His-tag) (Homo sapiens, UniProt O60674); assay: JAK kinase assay (HTRF, phosphorylation of TK substrate-biotin), JAK2; conditions: ATP at Km (4 μM), read-out: JAK2 kinase inhibitory activity (EC50 indicator)
T3 construct: All four purified enzymes contain only the catalytic domain; His (N); purchased Carna Biosciences, Inc; host or cells: baculovirus expression system
How it was run: as §1

[4] = target: T4, TYK2 (aa 871-1187, catalytic domain, GST-tag) (Homo sapiens, UniProt P29597); assay: JAK kinase assay (HTRF, phosphorylation of TK substrate-biotin), TYK2; conditions: ATP at Km (13 μM), read-out: TYK2 kinase inhibitory activity (EC50 indicator)
T4 construct: JAK1 (aa 850-1154) and TYK2 (aa 871-1187) are expressed with an N-terminally fused GST-tag; GST (N); purchased Carna Biosciences, Inc; host or cells: baculovirus expression system
T4 sequence (P29597 871-1187): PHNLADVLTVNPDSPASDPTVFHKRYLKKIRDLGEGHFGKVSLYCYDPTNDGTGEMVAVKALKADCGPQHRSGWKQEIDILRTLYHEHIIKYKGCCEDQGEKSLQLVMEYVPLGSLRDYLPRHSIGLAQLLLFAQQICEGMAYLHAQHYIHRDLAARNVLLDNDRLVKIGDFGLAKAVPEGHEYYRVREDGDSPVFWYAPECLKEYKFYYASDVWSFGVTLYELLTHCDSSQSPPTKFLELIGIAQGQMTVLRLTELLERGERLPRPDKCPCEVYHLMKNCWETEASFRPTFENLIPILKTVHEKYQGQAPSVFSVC
How it was run: as §1

T1 sequence (P52333 822-1111 limits assumed): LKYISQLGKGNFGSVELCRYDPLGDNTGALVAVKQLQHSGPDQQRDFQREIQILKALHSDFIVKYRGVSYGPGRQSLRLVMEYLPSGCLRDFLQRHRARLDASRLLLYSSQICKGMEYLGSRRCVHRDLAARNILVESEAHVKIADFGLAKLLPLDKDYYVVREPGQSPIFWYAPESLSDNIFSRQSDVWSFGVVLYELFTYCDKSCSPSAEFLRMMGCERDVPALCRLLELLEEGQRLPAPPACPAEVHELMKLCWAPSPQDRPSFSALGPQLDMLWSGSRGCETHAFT
T3 sequence (O60674 849-1124 limits assumed): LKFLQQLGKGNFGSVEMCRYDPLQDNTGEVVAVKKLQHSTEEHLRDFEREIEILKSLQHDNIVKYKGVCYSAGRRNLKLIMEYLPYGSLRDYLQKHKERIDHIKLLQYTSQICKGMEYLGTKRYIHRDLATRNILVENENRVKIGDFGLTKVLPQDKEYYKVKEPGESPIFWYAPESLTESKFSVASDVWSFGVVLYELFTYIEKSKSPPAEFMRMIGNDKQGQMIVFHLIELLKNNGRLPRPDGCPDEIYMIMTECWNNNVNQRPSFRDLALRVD
T2 sequence (P23458 850-1154): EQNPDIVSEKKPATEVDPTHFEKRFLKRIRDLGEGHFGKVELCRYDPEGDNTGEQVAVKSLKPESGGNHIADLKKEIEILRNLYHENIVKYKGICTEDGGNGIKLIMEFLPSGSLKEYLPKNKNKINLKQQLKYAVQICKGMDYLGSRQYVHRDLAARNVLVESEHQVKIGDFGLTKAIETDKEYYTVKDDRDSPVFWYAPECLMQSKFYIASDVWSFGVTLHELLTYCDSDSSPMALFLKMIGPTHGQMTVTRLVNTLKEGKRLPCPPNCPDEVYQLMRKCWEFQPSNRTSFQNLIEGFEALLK

SMILES	EC50 [1]	EC50 [2]	EC50 [3]	EC50 [4]	EC50 ([1]; HTRF assay)	EC50 ([2]; HTRF assay)	EC50 ([3]; HTRF assay)	EC50 ([4]; HTRF assay)
O=C(CC1CCCC1)N1[C@@H]2CC[C@H]1CN(c1ncnc3[nH]ccc13)C2 [Example 38, 2-Cyclopentyl-1-[3-(7H-pyrrolo[2,3-d]pyrimidin-4-yl)-3,8-diazabicyclo[3.2.1]oct-8-yl]ethanone]	100 to 500 nM	< 100 nM	< 100 nM	> 500 nM				
CS(=O)(=O)c1ccc(C(=O)N2[C@@H]3CC[C@@H]2CN(c2ncnc4[nH]ccc24)C3)cc1 [Example 356, (4-Methanesulfonyl-phenyl)-[3-(7H-pyrrolo[2,3-d]pyrimidin-4-yl)-3,8-diaza-bicyclo[3.2.1]oct-8-yl]-methanone]					100 to 500 nM	< 100 nM	< 100 nM	> 500 nM
CNS(=O)(=O)c1cc(C(=O)N2CCN(c3ncnc4[nH]ccc34)CC23CC3)sc1C [Example 375, 2-Methyl-5-[7-(7H-pyrrolo[2,3-d]pyrimidin-4-yl)-4,7-diaza-spiro[2.5]octane-4-carbonyl]-thiophene-3-sulfonic acid methylamide]					< 100 nM	< 100 nM	< 100 nM	100 to 500 nM
N#Cc1ccccc1CC(=O)N1CCN(c2ccnc3[nH]ccc23)CC12CC2 [Example 237, 2-{2-Oxo-2-[7-(1H-pyrrolo[2,3-b]pyridin-4-yl)-4,7-diaza-spiro[2.5]oct-4-yl]-ethyl}-benzonitrile]					100 to 500 nM	> 500 nM	100 to 500 nM	> 500 nM
O=C(c1cnc2ccccc2c1)N1CCN(c2ncnc3[nH]ccc23)CC12CC2 [Example 163, [7-(7H-Pyrrolo[2,3-d]pyrimidin-4-yl)-4,7-diaza-spiro[2.5]oct-4-yl]-quinolin-3-yl-methanone]	> 500 nM	< 100 nM	< 100 nM	100 to 500 nM				
NS(=O)(=O)c1ccc2[nH]c(C(=O)N3CCN(c4ncnc5[nH]ccc45)CC34CC4)cc2c1 [Example 186, 2-[7-(7H-Pyrrolo[2,3-d]pyrimidin-4-yl)-4,7-diaza-spiro[2.5]octane-4-carbonyl]-1H-indole-5-sulfonic acid amide]	< 100 nM	< 100 nM	< 100 nM	< 100 nM				
CCOC(=O)NC(=S)N1[C@@H]2CC[C@H]1CN(c1ncnc3[nH]ccc13)C2 [Example 29, [3-(7H-Pyrrolo[2,3-d]pyrimidin-4-yl)-3,8-diazabicyclo[3.2.1]octane-8-carbothioyl]carbamic acid ethyl ester]	> 500 nM	100 to 500 nM	100 to 500 nM	> 500 nM				
Cc1cc(S(N)(=O)=O)ccc1C(=O)N1CCN(c2ncnc3[nH]ccc23)CC12CC2 [Example 379, 3-Methyl-4-[7-(7H-pyrrolo[2,3-d]pyrimidin-4-yl)-4,7-diaza-spiro[2.5]octane-4-carbonyl]-benzenesulfonamide]					< 100 nM	< 100 nM	< 100 nM	100 to 500 nM
O=C(c1cnccn1)N1CCN(c2ncnc3[nH]ccc23)CC12CC2 [Example 19, Pyrazin-2-yl-[7-(7H-pyrrolo[2,3-d]pyrimidin-4-yl)-4,7-diazaspiro[2.5]oct-4-yl]methanone]	< 100 nM	< 100 nM	< 100 nM	100 to 500 nM				
Cc1nccnc1C(=O)N1CCN(c2ncnc3[nH]ccc23)CC12CC2 [Example 417, (3-Methyl-pyrazin-2-yl)-[7-(7H-pyrrolo[2,3-d]pyrimidin-4-yl)-4,7-diaza-spiro[2.5]oct-4-yl]-methanone]					< 100 nM	< 100 nM	< 100 nM	< 100 nM
Cc1csc(C(=O)N2CCN(c3ncnc4[nH]ccc34)CC23CC3)c1 [Example 62, (4-Methyl-thiophen-2-yl)-[7-(7H-pyrrolo[2,3-d]pyrimidin-4-yl)-4,7-diaza-spiro[2.5]oct-4-yl]-methanone]	< 100 nM	< 100 nM	< 100 nM	< 100 nM				
O=C(c1cccc(O)n1)N1CCN(c2ncnc3[nH]ccc23)CC12CC2 [Example 166, (6-Hydroxy-pyridin-2-yl)-[7-(7H-pyrrolo[2,3-d]pyrimidin-4-yl)-4,7-diaza-spiro[2.5]oct-4-yl]-methanone]	100 to 500 nM	< 100 nM	< 100 nM	> 500 nM				
Cc1sc(C(=O)N2CCN(c3ncnc4[nH]ccc34)CC23CC3)cc1Br [Example 208, (4-Bromo-5-methyl-thiophen-2-yl)-[7-(7H-pyrrolo[2,3-d]pyrimidin-4-yl)-4,7-diaza-spiro[2.5]oct-4-yl]-methanone]					< 100 nM	< 100 nM	< 100 nM	< 100 nM
N#CC1(C(=O)N2C[C@@H]3C[C@H]2CN3c2ncnc3[nH]ccc23)CC1 [Example 270, 1-[5-(7H-Pyrrolo[2,3-d]pyrimidin-4-yl)-2,5-diaza-bicyclo[2.2.1]heptane-2-carbonyl]-cyclopropanecarbonitrile]					> 500 nM	> 500 nM	> 500 nM	> 500 nM
O=C(c1cnccn1)N1[C@@H]2CC[C@H]1CN(c1ncnc3[nH]ccc13)C2 [Example 421, Pyrazin-2-yl-[3-(7H-pyrrolo[2,3-d]pyrimidin-4-yl)-3,8-diaza-bicyclo[3.2.1]oct-8-yl]-methanone]					100 to 500 nM	< 100 nM	< 100 nM	> 500 nM
N#CCCC(=O)N1CCN(c2ncnc3[nH]cc(Cl)c23)CC12CC2 [Example 325, 4-[7-(5-Chloro-7H-pyrrolo[2,3-d]pyrimidin-4-yl)-4,7-diaza-spiro[2.5]oct-4-yl]-4-oxo-butyronitrile]					100 to 500 nM	> 500 nM	100 to 500 nM	> 500 nM
N#CC1CCN(C(=O)C2(C(=O)N3CCN(c4ncnc5[nH]ccc45)CC34CC4)CC2)C1 (centres unmarked) [Example 88, 1-{1-[7-(7H-Pyrrolo[2,3-d]pyrimidin-4-yl)-4,7-diaza-spiro[2.5]octane-4-carbonyl]-cyclopropanecarbonyl}-pyrrolidine-3-carbonitrile]	> 500 nM	> 500 nM	100 to 500 nM	> 500 nM				
N#Cc1ccc(C(=O)N2[C@@H]3CC[C@@H]2CN(c2ncnc4[nH]ccc24)C3)c(F)c1 [Example 351, 3-Fluoro-4-[3-(7H-pyrrolo[2,3-d]pyrimidin-4-yl)-3,8-diaza-bicyclo[3.2.1]octane-8-carbonyl]-benzonitrile]					100 to 500 nM	< 100 nM	< 100 nM	> 500 nM
O=C(CCC(F)(F)F)N1CCN(c2ncnc3[nH]ccc23)CC12CC2 [Example 28, 4,4,4-Trifluoro-1-[7-(7H-pyrrolo[2,3-d]pyrimidin-4-yl)-4,7-diazaspiro[2.5]oct-4-yl]butan-1-one]	< 100 nM	< 100 nM	< 100 nM	100 to 500 nM				
N#CCCC(=O)N1CCN(c2ccnc3[nH]ccc23)CC12CC2 [Example 116, 4-Oxo-4-[7-(1H-pyrrolo[2,3-b]pyridin-4-yl)-4,7-diaza-spiro[2.5]oct-4-yl]-butyronitrile]	100 to 500 nM	100 to 500 nM	100 to 500 nM	> 500 nM				

— patent publication US9346809B2 (LEO PHARMA A/S, priority 2009, dated 2016)
